Where “and” joins values, the source holds several entries; their conditions need not be identical. Equal values may be shown once. Read-outs that look alike come from different tables or passages of the source.
What was measured:
[1] = tested on: A549 (lung adenocarcinoma); experiment: WST-1 cell viability, lung cancer cell line A549; format: cell-based; settings: Homo sapiens
Protocol: (§1) The cell numbers were counted and reseed as 2×10^6 in culture plate/flask. Then, the culture medium were added to a volume of 10 ml, and the cells were cultured for 2-3 days. Then, the cells were suspended for loading into 96-well plates. The number of cells was 3000 and the volume of the culture medium was 100 μl each well.
(§2) Removing the original culture medium from 96-well plate. Then add 100 μl of commercially drug at a concentration of 10 μM per well. After 72 hours, add the diluted WST-1 reagent to the well with 100 μl/well, and the diluted WST-1 reagent was acquired from the dilution of 9:1 medium and WST-1 stock reagent. Finally, the total volume of each well was 200 μl/well. Culture the 96-well plate at 37° C. for 30 to 90 minutes. Detecting and calculate the survival rate of each cancer cells with an ELISA reader at OD450 nm.

T24 = experiment: WST-1 cell viability, bladder cancer cell line T24; format: cell-based; settings: Homo sapiens
Protocol: as §1
Removing the original culture medium from 96-well plate. Then add 100 μl of commercially drug at a concentration of 10 μM per well. After 72 hours, add the diluted WST-1 reagent to the well with 100 μl/well, and the diluted WST-1 reagent was acquired from the dilution of 9:1 medium and WST-1 stock reagent. Finally, the total volume of each well was 200 μl/well. […] Detecting and calculate the survival rate of each cancer cells with an ELISA reader at OD450 nm.

[2] = tested on: HeLa (CervixAdenocarcinoma); experiment: WST-1 cell viability, cervical cancer cell line HeLa; format: cell-based; settings: Homo sapiens, 72 h
Protocol: as §1, §2

LNCap = experiment: WST-1 cell viability, prostate cancer cell line LNCap; format: cell-based; settings: Homo sapiens, 72 h
Protocol: as §1, §2

[3] = tested on: MCF7 (Mammary Gland, Adenocarcinoma); experiment: WST-1 cell viability, breast cancer cell line MCF7; format: cell-based; settings: Homo sapiens
Protocol: as §1, §2

TOV-21G = experiment: WST-1 cell viability, ovarian cancer cell line TOV-21G; format: cell-based; settings: Homo sapiens, TOV21G, 72 h
Protocol: as §1, §2

[4] = tested on: Hep3B (hepatocellular carcinoma); experiment: WST-1 cell viability, hepatic cancer cell line Hep3B; format: cell-based; settings: Homo sapiens, 72 h
Protocol: as §1, §2

AsPC-1 = experiment: WST-1 cell viability, pancreatic cancer cell line AsPC-1; format: cell-based; settings: Homo sapiens
Protocol: as §1, §2

[5] = tested on: SAS (Tongue squamouscell carcinoma); experiment: WST-1 cell viability, tongue cancer cell line SAS; format: cell-based; settings: 72 h
Protocol: as §1, §2

U2OS = experiment: WST-1 cell viability, osteosarcoma cell line U2OS; format: cell-based; settings: Homo sapiens, 72 h
Protocol: as §1, §2

[6] = tested on: A375 (amelanotic melanoma); experiment: WST-1 cell viability, skin cancer cell line A375; format: cell-based; settings: Homo sapiens
Protocol: as §1, §2

[7] = tested on: BCC (basal cell carcinoma); experiment: WST-1 cell viability, skin cancer cell line BCC; format: cell-based; settings: 72 h
Protocol: as §1, §2

[8] = WST-1 cell viability, normal pulmonary epithelial cell line BEAS-2B; format: cell-based; settings: human, BEAS-2B normal bronchial (pulmonary) epithelial cells
Source text: Subculture the different types of cancer cells.

bladder cancer cells = experiment: Summary of cell viability, bladder cancer; format: cell-based; settings: 72 h, read-out: Inhibitory effect
Protocol: as §2

prostate cancer cells = experiment: Summary of cell viability, prostate cancer; format: cell-based; settings: 72 h, read-out: Inhibitory effect
Protocol: as §2

gastric cancer cells = experiment: Summary of cell viability, gastric cancer; format: cell-based; settings: gastriccancer, 72 h, read-out: Inhibitory effect
Protocol: as §2

[9] = Animal model test of gastric cancer, body weight and survival of mice; format: in vivo; settings: for weight: mice A, B, C
Protocol: In this invention, the female mice were (BALB/cAnN.Cg-Foxn1^nu/CrlNarl) purchased from National Laboratory Animal Center (Taiwan). The weight of the mice were 21±1 g. These mice were subcutaneously injected with gastric cancer cells (AGS) and then put these mice into different cage sat random. The drug test experiment was divided into three groups, include “control group”, “low dose group (100 mg/kg/day)”, and “high dose group (200 mg/kg/day)”. These mice were then injected test drug intraperitoneally once daily until the tumor size reached 100 mm^3. The tumor sizes and body weight were measured twice a week. The tumor sizes were measured and calculated by formula: (L×W^2)/2. L represents the tumor longest length. W represents the tumor shortest diameter.

[10] = average of 4 tests, read-out: survival rate (inhibition effect), Average

`Fc1ccc([C@@H]2CCNC[C@H]2COc2ccc3c(c2)OCO3)cc1` [Paroxetine] showed a viability at 10 µM ([1]; A549, 72 h, A549, average of 4 tests, read-out: survival rate (inhibition effect), Average) of 92.4%, a viability at 10 µM ([1]; A549, A549, 72 h, run 0524-10 min, read-out: survival rate (inhibition effect)) of 84.2% and a viability at 10 µM ([1]; A549, A549, 72 h, run 0526-10 min, read-out: survival rate (inhibition effect)) of 127%. It also gave a viability at 10 µM ([1]; A549, A549, 72 h, run 0529-10 min, read-out: survival rate (inhibition effect)) of 54%, a viability at 10 µM ([1]; A549, A549, 72 h, run 0531-10 min, read-out: survival rate (inhibition effect)) of 104% and a viability at 10 µM (T24; T-24, 72 h, T24, average of 4 tests, read-out: survival rate (inhibition effect), Average) of 99.9%. It also gave a viability at 10 µM (T24; T-24, T24, 72 h, run 1-30 min, read-out: survival rate (inhibition effect)) of 112%, a viability at 10 µM (T24; T-24, T24, 72 h, run 2-20 min, read-out: survival rate (inhibition effect)) of 85.2% and a viability at 10 µM (T24; T-24, T24, 72 h, run 3-20 min, read-out: survival rate (inhibition effect)) of 102%. The viability at 10 µM (T24; T-24, T24, 72 h, run 4-20 min, read-out: survival rate (inhibition effect)) was 102%, the viability at 10 µM [2, 10] was 63.8% and the viability at 10 µM ([2]; run 0524-10 min, read-out: survival rate (inhibition effect)) was 52.6%. The viability at 10 µM ([2]; run 0526-10 min, read-out: survival rate (inhibition effect)) was 78.3%, the viability at 10 µM ([2]; run 0529-10 min, read-out: survival rate (inhibition effect)) was 51% and the viability at 10 µM ([2]; run 0531-10 min, read-out: survival rate (inhibition effect)) was 73.4%. The viability at 10 µM (LNCap; [10]) was 71.7%, the viability at 10 µM (LNCap; run LNCap-1-10 min, read-out: survival rate (inhibition effect)) was 65.9% and the viability at 10 µM (LNCap; run LNCap-2-20 min, read-out: survival rate (inhibition effect)) was 61.7%. It also gave a viability at 10 µM (LNCap; run LNCap-3-20 min, read-out: survival rate (inhibition effect)) of 80.9%, a viability at 10 µM (LNCap; run LNCap-4-20 min, read-out: survival rate (inhibition effect)) of 78.3% and a viability at 10 µM ([3]; MCF7, 72 h, MCF7, average of 4 tests, read-out: survival rate (inhibition effect), Average) of 51.2%. It also gave a viability at 10 µM ([3]; MCF7, MCF7, 72 h, run 0612-10 min, read-out: survival rate (inhibition effect)) of 47.7%, a viability at 10 µM ([3]; MCF7, MCF7, 72 h, run 0614-10 min, read-out: survival rate (inhibition effect)) of 50% and a viability at 10 µM ([3]; MCF7, MCF7, 72 h, run 0616-10 min, read-out: survival rate (inhibition effect)) of 55.4%. It also gave a viability at 10 µM ([3]; MCF7, MCF7, 72 h, run 0619-10 min, read-out: survival rate (inhibition effect)) of 51.6%, a viability at 10 µM (TOV-21G; [10]) of 87.1% and a viability at 10 µM (TOV-21G; run 4-30 min, read-out: survival rate (inhibition effect)) of 86.1%. For the same molecule, the viability at 10 µM (TOV-21G; run 7-3-30 min, read-out: survival rate (inhibition effect)) was 93.5%, the viability at 10 µM (TOV-21G; run 7-4-30 min, read-out: survival rate (inhibition effect)) was 79.7% and the viability at 10 µM (TOV-21G; run 7-7-30 min, read-out: survival rate (inhibition effect)) was 89.2%. The viability at 10 µM [4, 10] was 66.1%, the viability at 10 µM ([4]; run 0612-20 min, read-out: survival rate (inhibition effect)) was 69.8% and the viability at 10 µM ([4]; run 0614-20 min, read-out: survival rate (inhibition effect)) was 67.4%. For the same molecule, the viability at 10 µM ([4]; run 0616-20 min, read-out: survival rate (inhibition effect)) was 66.2%, the viability at 10 µM ([4]; run 0619-20 min, read-out: survival rate (inhibition effect)) was 60.9% and the viability at 10 µM (AsPC-1; ASPC1, 72 h, AsPC-1, average of 4 tests, read-out: survival rate (inhibition effect), Average) was 77%. It also gave a viability at 10 µM (AsPC-1; ASPC1, AsPC-1, 72 h, run 1-4-30 min, read-out: survival rate (inhibition effect)) of 72.5%, a viability at 10 µM (AsPC-1; ASPC1, AsPC-1, 72 h, run 1-7-3-30 min, read-out: survival rate (inhibition effect)) of 78.8% and a viability at 10 µM (AsPC-1; ASPC1, AsPC-1, 72 h, run 1-7-4-30 min, read-out: survival rate (inhibition effect)) of 87.3%. It also gave a viability at 10 µM (AsPC-1; ASPC1, AsPC-1, 72 h, run 1-7-7-30 min, read-out: survival rate (inhibition effect)) of 69.3%, a viability at 10 µM ([5]; SAS, average of 4 tests, read-out: survival rate (inhibition effect), Average) of 51.5% and a viability at 10 µM ([5]; summary, tongue cancer, read-out: Inhibitory effect) of 51.5%. For the same molecule, the viability at 10 µM ([5]; SAS, run 6-26-10 min, read-out: survival rate (inhibition effect)) was 48.2%, the viability at 10 µM ([5]; SAS, run 6-28-10 min, read-out: survival rate (inhibition effect)) was 26.7% and the viability at 10 µM ([5]; SAS, run 6-30-10 min, read-out: survival rate (inhibition effect)) was 58%. For the same molecule, the viability at 10 µM ([5]; SAS, run 7-3-10 min, read-out: survival rate (inhibition effect)) was 73.1%, the viability at 10 µM (U2OS; [10]) was 33.2% and the viability at 10 µM (U2OS; run 6-26-10 min, read-out: survival rate (inhibition effect)) was 40.6%. The viability at 10 µM (U2OS; run 6-28-10 min, read-out: survival rate (inhibition effect)) was 30.8%, the viability at 10 µM (U2OS; run 6-30-10 min, read-out: survival rate (inhibition effect)) was 30.3% and the viability at 10 µM (U2OS; run 7-3-10 min, read-out: survival rate (inhibition effect)) was 31.1%. The viability at 10 µM (U2OS; summary, osteosarcoma, read-out: Inhibitory effect) was 33.2%, the viability at 10 µM ([6]; A-375, 72 h, A375, average of 4 tests, read-out: survival rate (inhibition effect), Average) was 43.8% and the viability at 10 µM ([6]; A-375, A375, 72 h, run 0602-30 min, read-out: survival rate (inhibition effect)) was 46.8%. For the same molecule, the viability at 10 µM ([6]; A-375, A375, 72 h, run 0605-10 min, read-out: survival rate (inhibition effect)) was 44.4%, the viability at 10 µM ([6]; A-375, A375, 72 h, run 0607-10 min, read-out: survival rate (inhibition effect)) was 35.4% and the viability at 10 µM ([6]; A-375, A375, 72 h, run 0609-10 min, read-out: survival rate (inhibition effect)) was 48.8%. It also gave a viability at 10 µM [7, 10] of 58.2%, a viability at 10 µM ([7]; run 0602-30 min, read-out: survival rate (inhibition effect)) of 42.1% and a viability at 10 µM ([7]; run 0605-10 min, read-out: survival rate (inhibition effect)) of 52.6%. For the same molecule, the viability at 10 µM ([7]; run 0607-10 min, read-out: survival rate (inhibition effect)) was 41.1%, the viability at 10 µM ([7]; run 0609-10 min, read-out: survival rate (inhibition effect)) was 97% and the viability at 72 h, 10 µM ([8]; BEAS-2B, average of 4 tests, read-out: survival rate (inhibition effect), Average) was 98.6%. For the same molecule, the viability at 72 h, 10 µM ([8]; BEAS-2B, run 0512-10 min, read-out: survival rate (inhibition effect)) was 103%, the viability at 72 h, 10 µM ([8]; BEAS-2B, run 0515-10 min, read-out: survival rate (inhibition effect)) was 96.4% and the viability at 72 h, 10 µM ([8]; BEAS-2B, run 0517-10 min, read-out: survival rate (inhibition effect)) was 94.6%. The viability at 72 h, 10 µM ([8]; summary, pulmonary epithelial cell line, read-out: Inhibitory effect) was 98.6%, the viability at 10 µM (bladder cancer cells) was 69.1% and the viability at 10 µM (prostate cancer cells) was 44.1%. The viability at 10 µM (gastric cancer cells) was 26.3%, the weight ([9]; 100 mg/kg/day i.p., Fifth measurement) was 22 g and 20 g and the weight ([9]; 100 mg/kg/day i.p., First measurement) was 19 g and 18 g. For the same molecule, the weight ([9]; 100 mg/kg/day i.p., Fourth measurement) was 22 g and 20 g, the weight ([9]; 100 mg/kg/day i.p., Second measurement) was 19 g and 21 g and 20 g and the weight ([9]; 100 mg/kg/day i.p., Third measurement) was 20.5 g and 23.5 g and 19 g. For the same molecule, the weight ([9]; 200 mg/kg/day i.p., Fifth measurement) was 21 g and 20 g, the weight ([9]; 200 mg/kg/day i.p., First measurement) was 19 g and 18.5 g and 20 g and the weight ([9]; 200 mg/kg/day i.p., Fourth measurement) was 20 g and 21 g. The weight ([9]; 200 mg/kg/day i.p., Second measurement) was 20 g and 23 g, the weight ([9]; 200 mg/kg/day i.p., Third measurement) was 19 g and 18.5 g and the “health status / death of tested mice during the treatment” value ([9]; both high and low doses) was “without death”. The “weight of mice during the experiment” value ([9]; both low dose and high dose, FIG. 2) was “did not show a significant decrease”.

Reference: US20170304286A1 (LAUNX BIOMEDICAL CO., LTD., priority 2014, published 2017)
